For experiment [1], the target named is T1, muscarinic receptors in submandibular gland (Rattus norvegicus, UniProt P08483).
T1 construct: All the organs were then homogenised in a Potter apparatus; from tissue; host or cells: submandibular gland of male Sprague-Dawley rats, homogenate diluted 1:400
Kind of experiment: Receptor binding test in vitro, 3H-NMS displacement, submandibular gland homogenate. To be noted: rat submandibular gland homogenate 1:400; 0.3 nanomolar 3H-NMS; 30° C., 45 minutes; read-out: Receptor Binding Tests IC50 Submandibular gland. The procedure:
(§1) The organs were donated by male Sprague-Dawley rats weighing 180-220 g. […] The whole heart was cut up with scissors. All the organs were then homogenised in a Potter apparatus.
(§2) For the binding test the homogenised organs were diluted as follows:
Submandibular gland 1:400
(§3) Incubation lasted 45 minutes. The radioligand used was 0.3 nanomolar ^3 H-N-methylscopolamine (^3 H-NMS). […] The filters were rinsed with cold buffer and their radioactivity was determined. It represents the sum of specific and non-specific binding of ^3 H-NMS.
(§4) Each measurement was taken four times. […] They represent that concentration of test substance at which the specific binding of ^3 H-NMS to the muscarinic receptors in the various organs was inhibited by 50%.

The target in experiment [2] is T2, muscarinic receptors in heart (Rattus norvegicus, UniProt P10980).
T2 construct: The whole heart was cut up with scissors; from tissue; host or cells: whole heart of male Sprague-Dawley rats, homogenate diluted 1:400
T2 sequence (P10980 1-466): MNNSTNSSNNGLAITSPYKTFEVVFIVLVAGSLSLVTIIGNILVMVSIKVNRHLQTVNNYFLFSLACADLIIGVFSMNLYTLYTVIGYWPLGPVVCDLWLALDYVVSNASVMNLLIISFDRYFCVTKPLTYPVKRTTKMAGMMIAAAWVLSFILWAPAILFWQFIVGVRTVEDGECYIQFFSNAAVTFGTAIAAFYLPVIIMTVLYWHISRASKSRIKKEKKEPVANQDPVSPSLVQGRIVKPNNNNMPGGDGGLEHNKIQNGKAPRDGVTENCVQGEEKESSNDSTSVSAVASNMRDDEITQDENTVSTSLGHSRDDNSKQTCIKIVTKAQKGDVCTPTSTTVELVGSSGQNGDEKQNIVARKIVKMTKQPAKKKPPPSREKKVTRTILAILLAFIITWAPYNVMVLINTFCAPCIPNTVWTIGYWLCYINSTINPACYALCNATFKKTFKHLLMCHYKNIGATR
Kind of experiment: Receptor binding test in vitro, 3H-NMS displacement, whole heart homogenate. The note with it: rat whole heart homogenate 1:400; 0.3 nanomolar 3H-NMS; 30° C., 45 minutes; read-out: Receptor Binding Tests IC50 Heart. The procedure: as §1, §2, §3, §4

The test system of experiment [3] is acetylcholine effect on heart rate. The experiment can be described thus: Inhibition of the effect of acetylcholine on heart rate in anaesthetised guinea pigs. The experiment is classed as in vivo, guinea pig. The note with it: Cavia porcellus, iv, 5 min, 10 microgram/kg acetylcholine i.v. and intra-arterially 5 minutes after test substance, heart rate by ECG, read-out: -log ED50 Heart (converted). The procedure: (§5) Substances with antimuscarinic properties inhibit the effects of agonists supplied exogenically or of acetylcholine, which is released from cholinergic nerve endings. The following is a description of an "in vivo" method which is suitable for the detection of cardioselective antimuscarinic agents.
(§6) Inhibition of the effect of acetylcholine on the bladder, bronchi and heart rate in guinea pigs
(§7) 5 minutes after the administration of the test substance, 10 microgram/kg of acetylcholine were simultaneously injected intravenously and intra-arterially into anaesthetised guinea pigs. The heart rate was recorded directly by extracorporeal derivation of the ECG, as were the expiration resistance according to Konzett-Rossler and the contraction of the exposed bladder. In order to determine the inhibition of the acetylcholine activity on the organs under investigation, dosage/activity curves were recorded and from them -log ED50 values were determined. For the results see Table II.

The target in experiment [4] is muscarinic receptors in cerebral cortex. Kind of experiment: Receptor binding test in vitro, 3H-NMS displacement, cerebral cortex homogenate. The note with it: rat cerebral cortex homogenate 1:3000; 0.3 nanomolar 3H-NMS; 30° C., 45 minutes; read-out: Receptor Binding Tests IC50 Cortex. The protocol: The organs were donated by male Sprague-Dawley rats weighing 180-220 g. After the heart and subman-dibular gland and cerebral cortex had been removed, all other steps were carried out in ice cold Hepes HCl buffer (pH 7.4; 100 millimolar NaCl, 10 millimolar MgCl2). The whole heart was cut up with scissors. All the organs were then homogenised in a Potter apparatus.
as §2
The homogenised organs were incubated at a certain concentration of the radioligand and at a series of concentrations of the non-radioactive test substances in an Eppendorf centrifuge tube at 30° C. Incubation lasted 45 minutes. The radioligand used was 0.3 nanomolar ^3 H-N-methylscopolamine (^3 H-NMS). Incubation was ended by the addition of ice cold buffer followed by vaccum filtration. The filters were rinsed with cold buffer and their radioactivity was determined. It represents the sum of specific and non-specific binding of ^3 H-NMS.
The proportion of non-specific binding was defined as the radioactivity which was bound in the presence of 1 micromolar quinuclidinyl-benzylate. Each measurement was taken four times. The IC^50 values of the non-labelled test substances were determined graphically. They represent that concentration of test substance at which the specific binding of ^3 H-NMS to the muscarinic receptors in the various organs was inhibited by 50%.

Experiment [5] relates to acetylcholine effect on bronchi. Kind of experiment: Inhibition of the effect of acetylcholine on bronchi (expiration resistance, Konzett-Rossler) in anaesthetised guinea pigs. Type of experiment: in vivo, guinea pig. To be noted: Cavia porcellus, iv, 5 min, 10 microgram/kg acetylcholine i.v. and intra-arterially 5 minutes after test substance, read-out: -log ED50 Bronchi (converted). The protocol: as §5, §6, §7

Experiment [6] deals with acetylcholine effect on bladder. The experiment can be described thus: Inhibition of the effect of acetylcholine on contraction of the exposed bladder in anaesthetised guinea pigs. The experiment is classed as in vivo, guinea pig. The note with it: Cavia porcellus, iv, 5 min, 10 microgram/kg acetylcholine i.v. and intra-arterially 5 minutes after test substance, read-out: -log ED50 Bladder (converted). The protocol:
as §5, §6, §7

T1 sequence (P08483 whole entry): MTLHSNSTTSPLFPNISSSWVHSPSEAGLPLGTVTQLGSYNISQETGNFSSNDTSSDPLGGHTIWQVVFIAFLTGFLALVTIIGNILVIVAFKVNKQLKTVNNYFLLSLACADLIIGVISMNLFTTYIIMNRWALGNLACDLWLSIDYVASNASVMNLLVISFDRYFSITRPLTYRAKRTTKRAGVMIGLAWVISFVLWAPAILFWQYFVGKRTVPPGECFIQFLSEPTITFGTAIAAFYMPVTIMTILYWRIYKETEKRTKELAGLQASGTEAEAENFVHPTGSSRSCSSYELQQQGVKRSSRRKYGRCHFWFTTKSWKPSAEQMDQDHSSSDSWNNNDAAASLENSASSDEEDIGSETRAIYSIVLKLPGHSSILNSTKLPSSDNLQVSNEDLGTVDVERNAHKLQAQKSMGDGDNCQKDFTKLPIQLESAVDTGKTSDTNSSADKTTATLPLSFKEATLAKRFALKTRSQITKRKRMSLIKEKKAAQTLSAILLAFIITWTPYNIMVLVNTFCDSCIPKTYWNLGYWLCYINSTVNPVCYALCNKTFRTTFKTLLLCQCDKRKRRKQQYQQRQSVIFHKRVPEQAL

Consider `CCN(CCCC(=O)N1CCC(C(=O)N(C)C)CC1)C(C)Cc1ccc(OC)cc1` (racemic) [A, (±)-1-[4-[ethyl[2-(4-methoxyphenyl)-1-methylethyl]amino]-1-oxobutyl]-N,N-dimethyl-4-piperidine carboxamide], for which the values for the IC50 in experiment [1], in experiment [2] and in experiment [4] were 300 nM, 10 nM and 50 nM, respectively. For the same compound, the 50% effective dose (ED50) is 0.0646 µmol/kg in experiment [3], 0.148 µmol/kg in experiment [5] and 0.513 µmol/kg in experiment [6].
For the compound `CN1[C@@H]2CC[C@H]1C[C@@H](OC(=O)C(CO)c1ccccc1)C2` (stereo partly shown) [B, atropine, reference compound], the IC50 in experiment [4] was 2 nM.

The term IC50 denotes the concentration at which inhibition is half-maximal. A word on the ED50: it is the dose that gives a 50% effect, or the effect in half of the subjects.
